Results from patent publication US20090220996A1, “In vitro Assay Methods for Classifying Embryotoxicity of Compounds” (RELIANCE LIFE SCIENCES PVT LTD., priority 2007, published 2009).
Converted amounts (≈) assume the structure as drawn. Like-named read-outs stand apart in the source and are kept apart here.

Key:
[1] = test system: human embryonic stem cells (hES); experiment: Cytotoxicity in undifferentiated human embryonic stem cells, day 15 (FACS with PI / CyQUANT); assay type: cell-based; conditions: Homo sapiens, Embryonic stem cell
Procedure: In general, the presently disclosed embryotoxicity testing protocols comprise the following sequence of steps. Studies using embryoid bodies generally comprise: a) preparation of various concentrations of test solutions in culture medium or a desired solvent; b) preparation of a cell suspension by enzymatic digestion of human embryonic stem cell colonies; c) culturing the cell suspension for formation of embryoid bodies in the presence and absence of one or more test solutions, and incubation for several days (e.g., three days) in hanging drops; d) cultivation of the embryoid bodies in bacteriological petri dishes for several days (e.g., two days) under controlled conditions; e) transfer of the embryoid bodies into 96 well plates and incubation for several days (e.g., 10 days) in the presence of one or more test solutions; and f) detection of the viability of the embryoid bodies after 15 days by MTT assay, or fluorescent or luminescent method, and isolation of RNA for studying gene expression. Studies using human foreskin fibroblasts (HFF) generally comprise: a) preparation of various concentrations of test solutions in culture medium or a desired solvent; b) plating of HFF cells in 96 well plates in the presence or absence of one or more test solutions for 15 days, changing the media and test solutions every 2 days; and c) detection of the viability of HFF after 15 days by MTT assay, or fluorescent or luminescent method. Studies using human embryonic stem cells generally comprise: a) preparation of various concentrations of test solutions in culture medium or a desired solvent; b) preparation of hES colonies by manual passage in the presence and absence of one or more test solutions, and incubation for 15 days on matrigel coated plates changing the media and test solutions every 2 days; c) disruption of the colonies after 15 days with enzymes to form single cells; d) labeling of single cells with a fluorescently-labeled dye, such as propidium iodide (“PI”); and e) detection of the percentage viability with FACS as a measure of cytotoxicity. […]
After 2 hours incubation, 150 μl of assay medium containing the appropriate concentration of test chemical (150 μl volume contains 1.333× the final chemical concentration) was added. Appropriate blanks without the chemicals were used along with the test samples The cell cultures were incubated at 5% CO2 and 37° C. for 3 days. On day 3, test solution was removed with the care, so that the cell layer on the bottom of the wells was not disturbed. Next, 200 μl of freshly prepared test solution (final concentration/well as on day 0) was added, and the cell cultures were incubated at 5% CO2 and 37° C. for 3 days. This process was repeated on days 6, 9, and 12. Determination of cell growth inhibition was performed at day 15 of the assay using MTT reagent. Cytotoxicity for hES cells was calculated using flow cytometry. Briefly, cells were placed on matrigel coated plates along with different test compound concentrations. Media was replaced every 3 days along with the different test compound concentrations. At day 15, hES cells were collected by trypsinization, and after washing with PBS, the cells were incubated with PI for 10 minutes in the dark. Percent viability for various test compound concentrations was calculated using flow cytometry.
Cytotoxicity analysis of three cell types (hES, hEBs and HFF) was evaluated using the CyQUANT assay following compound treatment. All data were the mean of three independent experiments for each cell type. Data is represented as the mean±SE.

[2] = test system: human embryoid bodies (hEBs); experiment: Morphological evaluation of embryoid bodies (photomicrographs); assay type: cell-based; conditions: day 7 hEBs; FIG. 4A-4D
Procedure: Hanging drops were made in hES media with LIF and bFGF for calculating IC50-hES cells, and in hES media without LIF and bFGF (hEB media) for the formation of EBs. On day 3 the hES colonies were collected along with the respective test compound concentration, whereas the hEBs were collected and transferred to 60 mm bacteriological petri plates for another 2 days. Morphology of the EBs was monitored under the microscope for the formation of EBs. On day 5 the hEBs were plated in a 96 well plate for MTT, as well as on a 6 well plate for RNA extraction. The media along with the appropriate test compound concentration was replaced in the 96 well and 6 well plates on days 7, 9, 11, and 13. On day 15, MTT was performed on the hES plate and the differentiated EBs. RNA was extracted from all the concentrations of 5-fluorouracil, and 1 μg of RNA was converted to cDNA to perform RT-PCR, real time PCR, or TLDA.

[3] = Table 5; cited from earlier work
[4] = test system: 3T3 (mouse fibroblast cell line); conditions: Table 4; from the EST (Genschow, et al., 2000); cited from earlier work
[5] = test system: human embryoid bodies (hEB); experiment: Cytotoxicity in human embryoid bodies, day 15 (MTT / CyQUANT); conditions: for IC50: Homo sapiens
Procedure: In general, the presently disclosed embryotoxicity testing protocols comprise the following sequence of steps. Studies using embryoid bodies generally comprise: a) preparation of various concentrations of test solutions in culture medium or a desired solvent; b) preparation of a cell suspension by enzymatic digestion of human embryonic stem cell colonies; c) culturing the cell suspension for formation of embryoid bodies in the presence and absence of one or more test solutions, and incubation for several days (e.g., three days) in hanging drops; d) cultivation of the embryoid bodies in bacteriological petri dishes for several days (e.g., two days) under controlled conditions; e) transfer of the embryoid bodies into 96 well plates and incubation for several days (e.g., 10 days) in the presence of one or more test solutions; and f) detection of the viability of the embryoid bodies after 15 days by MTT assay, or fluorescent or luminescent method, and isolation of RNA for studying gene expression. Studies using human foreskin fibroblasts (HFF) generally comprise: a) preparation of various concentrations of test solutions in culture medium or a desired solvent; b) plating of HFF cells in 96 well plates in the presence or absence of one or more test solutions for 15 days, changing the media and test solutions every 2 days; and c) detection of the viability of HFF after 15 days by MTT assay, or fluorescent or luminescent method. Studies using human embryonic stem cells generally comprise: a) preparation of various concentrations of test solutions in culture medium or a desired solvent; b) preparation of hES colonies by manual passage in the presence and absence of one or more test solutions, and incubation for 15 days on matrigel coated plates changing the media and test solutions every 2 days; c) disruption of the colonies after 15 days with enzymes to form single cells; d) labeling of single cells with a fluorescently-labeled dye, such as propidium iodide (“PI”); and e) detection of the percentage viability with FACS as a measure of cytotoxicity.
The culturing of the cell suspension is done by dispensing about ¼ of the cell suspension along with test chemicals on the inner side of a 100 mm bacteriological petri dish. Around 50-80 drops are dispensed for each concentration, the untreated control, and the solvent control. The lid is turned carefully into its regular position and is put on top of a petri dish containing 5 ml of phosphate buffered saline (“PBS”). The “hanging drops” are incubated for three days in a humidified atmosphere with 5% CO2 at 37° C.
On day 3, 5 ml of freshly prepared test solution is added to the lid of the “hanging drops” petri dish. The embryoid bodies are carefully transferred from the lid of the “hanging drops” petri dish to a 60 mm bacteriological petri dish. The suspension is cultivated for two days in a humidified atmosphere with 5% CO2 at 37° C.
On the 5th day, the EBs are transferred into 96 well plates by placing 10 EBs in each well. About 150 μl of freshly prepared test solution is added to each well, and three wells are used for each concentration. The 96 well plates are incubated for […] in a humidified atmosphere with 5% CO2 at 37° C. The remaining EBs are plated on a 24 well plate coated with 0.2% gelatin and allowed to differentiate. Media was replaced every second day until day 15.
On the 15th day, an MTT assay is performed. MTT solution (5 mg/ml) is prepared in culture medium containing test chemical. The MTT solution is added to all wells and incubated at 37° C. in a humidified atmosphere of 5% CO2 for 4 hours, after which the MTT desorb solution (acidified isopropanol) is added to each well. The plate is shaken on a micrometer plate for 15 minutes to dissolve the formazan. The absorbance is measured at 550-570 nm in a microtiter plate reader using 630 nm as a reference wavelength.

[6] = test system: mouse ES cells; conditions: Table 4; from the EST (Genschow, et al., 2000); cited from earlier work

O=C1NS(=O)(=O)c2ccccc21 [Saccharin, saccharin]
IC50 ([1]; 360 h, Table 3, mean of 3 experiments, day 15, read-out: IC50-hES): 1920 ± 22.5 µg/mL (≈ 10.5 mM)
IC50 ([1]; Table 4, CyQuant cell viability assay, read-out: Human EST IC50 - hES): 1920 ± 22.5 µg/mL (≈ 10.5 mM)
concentration required to elicit a similar morphological response (loss of compactness, decreased EB size) [2]: 5000 μg/ml
General toxicity [3]: Obesity
Mouse EST IC50 - 3T3 [4]: 3000 µg/mL
IC50 ([5]; 360 h, read-out: IC50-hEB): 1550 ± 34.5 µg/mL (≈ 8.44 mM)
IC50 ([5]; read-out: IC50-hEBs): 1550 µg/mL (≈ 8.44 mM)
cell survival ([5]; hEBs, 1000 μg/ml, CyQUANT, FIG. 4A/4B): about 60%
Mouse EST IC50 - mES [6]: 3498 µg/mL
